The text below walks through data of patent US20060233714A1, “Use of a volatile liquid at atmospheric pressure and ambient temperature for the production of pharmaceutical or biological compositions” (priority 2003, published 2006).

Series [1] is described as follows: Evaporation time of the liquid brought into contact with living human hands. The settings on record: liquid applied to living human hands/skin; averages; 1 ml or 2 ml. It counts as physicochemical. Here is the method:
For an HFE having a vapor pressure at 25° C. and atmospheric pressure of 28,000 Pa (280 mbar), the evaporation time when 1 ml is brought into contact with living human hands was about 4 seconds; for an HFE having a vapor pressure at 25° C. and atmospheric pressure of 14,000 Pa (140 mbar), the evaporation time was 7 seconds; for an HFE having a vapor pressure at 25° C. and atmospheric pressure of 2100 Pa (21 mbar), the evaporation time was about 15 seconds; and for an HFE having a vapor pressure at 25° C. and atmospheric pressure of 69,800 Pa, the evaporation time was about 1 s.
The evaporation times indicated above are averages for 2 ml applied to the skin. They depend in particular on the temperature of the substrate to which they are applied and can vary between individuals, for application to the skin and mucosae, according to the body temperature and room temperature.

Series [2] is described as follows: Vapor pressure at 25° C. and atmospheric pressure.

For the compound `COC(F)(F)C(F)(F)C(F)(F)F` [methoxyheptafluoropropane], the “evaporation time on the hands” value in series [1] was “about 1 s”. Also, the “vapor pressure at 25° C. and atmospheric pressure” value in series [2] is on record as 69,800 Pa.
With ethoxynonafluorobutane, the “evaporation time on the hands” value in series [1] was “about 7 s”.
As for methoxynonafluorobutane, the “evaporation time on the hands” value in series [1] was “about 4 s”. For the same compound, in series [2], the “vapor pressure at 25° C. and atmospheric pressure” value is on record as 28,000 Pa.
